Results reported in PubChem BioAssay (NCI).
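In this assay, cells in 96-well plates receive the compound at five concentrations for 48 hours. Endpoints are linearly interpolated between the surrounding concentrations. Definition used: TGI = concentration required for complete inhibition of growth.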

Assays:
Experiment in all cases: DTP human tumour cell line panel, 48 h
SF-268 CNS = test system: SF-268 CNS
COLO 205 colon = test system: COLO 205 colon
CCRF-CEM leukemia = test system: CCRF-CEM leukemia
IGROV1 ovarian = test system: IGROV1 ovarian
UO-31 renal = test system: UO-31 renal
NCI-H522 lung = test system: NCI-H522 lung
NCI-H23 lung = test system: NCI-H23 lung
HCT-116 colon = test system: HCT-116 colon
BT-549 breast = test system: BT-549 breast
HCC-2998 colon = test system: HCC-2998 colon
NCI-H226 lung = test system: NCI-H226 lung
EKVX NSCLC = test system: EKVX NSCLC
SN12C renal = test system: SN12C renal
DU-145 prostate = test system: DU-145 prostate
NCI/ADR-RES ovarian = test system: NCI/ADR-RES ovarian
MCF7 breast = test system: MCF7 breast
SK-MEL-2 melanoma = test system: SK-MEL-2 melanoma
SK-MEL-5 melanoma = test system: SK-MEL-5 melanoma
HL-60(TB) leukemia = test system: HL-60(TB) leukemia
MDA-MB-231 breast = test system: MDA-MB-231 breast

Row | Structure (SMILES) | TGI (SF-268 CNS) | TGI (COLO 205 colon) | TGI (CCRF-CEM leukemia) | TGI (IGROV1 ovarian) | TGI (UO-31 renal) | TGI (NCI-H522 lung) | TGI (NCI-H23 lung) | TGI (HCT-116 colon) | TGI (BT-549 breast) | TGI (HCC-2998 colon) | TGI (NCI-H226 lung) | TGI (EKVX NSCLC) | TGI (SN12C renal) | TGI (DU-145 prostate) | TGI (NCI/ADR-RES ovarian) | TGI (MCF7 breast) | TGI (SK-MEL-2 melanoma) | TGI (SK-MEL-5 melanoma) | TGI (HL-60(TB) leukemia) | TGI (MDA-MB-231 breast)
1 | CC(=O)Oc1c(C)c2c(c3ccccc13)OC(C)(C)C2 | 28.8 µM | 38.5 µM | > 100 µM | 30.9 µM | 33.1 µM | 36.7 µM | 28 µM | 42.9 µM | 39.4 µM | 32.7 µM | 40.7 µM | 34 µM | 34.5 µM | 31 µM | 51.4 µM | 35.4 µM | 34 µM | 22.9 µM | 69.6 µM | 48.6 µM
2 | CN(C)Cc1cc(N=Nc2ccc(Cl)cc2)ccc1O | 34.4 µM | 13.8 µM | 36.7 µM | 32.3 µM | 24.5 µM | 26.3 µM | 45.2 µM | 31.2 µM | 26.8 µM | 28.6 µM | 30.3 µM | 33.8 µM | 33.1 µM | 48.1 µM | 33.4 µM | 31.4 µM | 38.1 µM | 27.6 µM | 32.1 µM | 32.2 µM
3 | O=C(Nc1nc(C23CC4CC(CC(C4)C2)C3)cs1)c1cc2c(ccc3ccccc32)oc1=O | > 100 µM | > 100 µM | > 100 µM | > 100 µM | > 100 µM | > 100 µM | > 100 µM | > 100 µM | > 100 µM | > 100 µM | > 100 µM | > 100 µM | > 100 µM | > 100 µM | > 100 µM | > 100 µM |  | > 100 µM | > 100 µM | > 100 µM
4 | COC1(CC[C@H](C)COC2OC(CO)C(O)C(O)C2O)O[C@H]2C[C@H]3[C@@H]4CC=C5C[C@@H](OC6OC(CO)C(O)C(OC7OC(CO)C(O)C(O)C7O)C6OC6OC(C)C(O)C(O)C6O)CC[C@]5(C)[C@H]4CC[C@]3(C)[C@H]2[C@@H]1C (stereo partly drawn) | 15.2 µM | 16.2 µM | > 32.9 µM | 11.8 µM | 4.36 µM | 7.41 µM | 18.9 µM | > 32.4 µM | 22.5 µM | 11.6 µM | 18.6 µM | > 51 µM | > 31.1 µM | 4.29 µM | 25.7 µM | 37.7 µM | 25.2 µM | 16.9 µM | 8.53 µM | 15.5 µM
5 | COc1cc(C23OCC(Cc4cc5c(cc42)OCO5)C3CO)cc(OC)c1OC (stereo not drawn) | > 100 µM | > 100 µM | > 100 µM | > 100 µM | > 100 µM | 5.11 µM | > 100 µM | > 100 µM | > 100 µM | 6.89 µM | > 100 µM | > 100 µM |  | > 100 µM | 5.51 µM | > 100 µM | > 100 µM | > 100 µM | > 50.1 µM | > 84.4 µM
6 | O=C(CCOS(=O)(=O)CF)N1CCN(C(=O)CCOS(=O)(=O)CF)CC1 | > 100 µM | > 100 µM | > 87.9 µM | > 100 µM | > 100 µM | > 90.1 µM | > 100 µM | > 100 µM | > 100 µM | > 100 µM | > 100 µM | > 100 µM | > 100 µM | > 100 µM | > 100 µM | > 100 µM | > 100 µM | > 100 µM | 29.6 µM | > 100 µM
7 | O=C1C(Cl)C(c2cc3cc(Br)ccc3nc2Cl)N1c1c(Cl)cccc1Cl (stereo not drawn) | > 25 µM | > 25 µM | 20 µM | > 25 µM | 4.5 µM | 11.3 µM | > 25 µM | > 25 µM | > 25 µM | > 25 µM | > 25 µM | 22.2 µM | > 25 µM | > 25 µM | > 25 µM | 22.6 µM | > 25 µM | > 25 µM | > 25 µM | > 25 µM
8 | N#Cc1c(N)c(C#N)c2c(c1-c1ccc(Cl)cc1)COc1ccccc1-2 | > 100 µM | > 100 µM | 33 µM | 66.5 µM | 13 µM |  | 39.9 µM | 40.7 µM | 65.2 µM | 54.9 µM | 98.9 µM | 28.5 µM | 31 µM | 68.6 µM | 68.5 µM | > 100 µM | 60.1 µM | 71.6 µM | 68.8 µM | 92.3 µM
9 | Cc1c(-c2ccccc2)c(C#N)c2nnn(-c3cccc(Cl)c3)c(=O)n12 | > 100 µM | > 100 µM | > 100 µM | > 100 µM |  | > 100 µM | > 100 µM | > 100 µM | > 100 µM | > 100 µM | > 100 µM | > 100 µM | > 100 µM | > 100 µM | > 100 µM | > 100 µM | 67.2 µM | > 100 µM | > 100 µM | 72.9 µM
10 | COCCOCCOCCOc1ccc(C(C#N)N(CCc2ccccc2)C(=O)c2cc(C(=O)N(CCc3ccccc3)C(C#N)c3ccc(OCCOCCOCCOC)cc3)cc(C(=O)N(CCc3ccccc3)C(C#N)c3ccc(OCCOCCOCCOC)cc3)c2)cc1 (stereo not drawn) | > 100 µM | > 100 µM | > 100 µM | > 100 µM | > 100 µM | > 100 µM | > 100 µM | > 100 µM | > 100 µM | > 100 µM | > 100 µM | > 100 µM | > 100 µM | > 100 µM | > 100 µM | > 100 µM | > 100 µM | > 100 µM | > 100 µM | > 100 µM
11 | CC(=O)OCC(OC(C)=O)C(OC(C)=O)C(OC(C)=O)C(/C=N\Nc1nc2ccccc2c(=O)[nH]1)=N/Nc1nc2ccccc2c(=O)[nH]1 (stereo not drawn) | > 100 µM | > 100 µM | > 100 µM |  | > 100 µM | > 100 µM | > 100 µM | > 100 µM | > 100 µM | > 100 µM | > 100 µM | > 100 µM | > 100 µM | > 100 µM | > 100 µM | > 100 µM | > 100 µM | > 100 µM | > 100 µM | > 100 µM
12 | O=C(N/N=C(/COc1cccc(Cl)c1)N=Cc1cccnc1)c1ccncc1 | > 100 µM | > 100 µM | > 100 µM | > 100 µM |  | > 100 µM | > 100 µM | > 100 µM | > 100 µM | > 100 µM | > 100 µM | > 100 µM | > 100 µM | > 100 µM | > 100 µM | > 100 µM | > 100 µM |  | > 100 µM | > 100 µM
